How the values were obtained:
Type in all cases: cell-based
[1] = biological target: T1, human FLAG-EP2 (Homo sapiens, UniProt P43116); test: Intracellular Ca2+ release in HEK 293 cells stably expressing EP2 (Fluo-4, confocal; Gαq/11 readout); details: HEK 293 EP2 cells; butaprost 10 μM, AH13205 10 μM, PGN9856i 100 nM; vs vehicle; FIG. 3
T1 construct: FLAG; expressed in transfected cells
Experimental: To measure Gαq/11 activation, HEK 293 cells stably expressing human FLAG-EP2 were pre-labelled with a Ca2+ indicator dye and acutely stimulated with each ligand.
HEK 293 cells, prepared following the same methodology as outlined in Example 1, were seeded onto Mattek dishes with 14 mm by 1.5 mm glass coverslips. Cells were incubated with Fluo-4am Ca2+ indicator (ThermoFisher) as per manufacturer's instructions. […]. Time-series images were acquired using a Leica SP5 confocal microscope, Leica LAS AF image acquisition software and a 488 nm excitation laser. HEK cells were imaged using a 10× dry objective. EP2 agonists (butaprost 10 μM, AH13205 10 μM or PGN9856i 100 nM) were added following measurement of basal fluorescence. Raw files were analysed using Fiji Time series analyser plugin to find the maximal fluorescent intensity, which was then averaged across cells in each condition.
The maximal fluorescence intensity was measured by live confocal microscopy.

[2] = biological target: T2, human FLAG-tagged EP2 (Homo sapiens, UniProt P43116); test: cAMP induction in HEK 293 cells stably expressing EP2 (Gαs readout); details: for cAMP efficacy at the maximal dose of each ligand: HEK 293 EP2 cells, 5 minutes of stimulation, no significant difference between ligands, FIG. 2
T2 construct: FLAG; expressed in transfected cells
T2 sequence (P43116 whole entry): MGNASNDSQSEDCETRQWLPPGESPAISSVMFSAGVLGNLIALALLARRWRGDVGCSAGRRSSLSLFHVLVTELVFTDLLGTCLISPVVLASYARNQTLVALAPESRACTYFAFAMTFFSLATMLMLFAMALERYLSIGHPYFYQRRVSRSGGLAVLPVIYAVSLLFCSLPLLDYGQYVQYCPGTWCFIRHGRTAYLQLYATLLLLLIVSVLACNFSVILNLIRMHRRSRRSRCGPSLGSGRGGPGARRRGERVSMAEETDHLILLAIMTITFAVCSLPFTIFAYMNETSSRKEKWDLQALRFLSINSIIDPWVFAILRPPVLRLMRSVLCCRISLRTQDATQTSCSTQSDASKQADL
Experimental: EP2 is a dually coupled GPCR capable of activating downstream signalling pathways via Gαs (anti-labour inducing) and Gαq/11 (pro-labour inducing).
HEK 293 cells were maintained in DMEM (Dulbecco's Modified Eagle Medium) containing 10% fetal bovine serum and 100 μ/ml penicillin-streptomycin, and cultured in 75 cm flasks at 37° C. in 95% air and 5% CO2. Cells at 95% confluency were passaged using 0.25% trypsin with 0.02% EDTA in phosphate-buffered saline (PBS).
Confluent myometrial cells were treated with/without OT (100 nM) for 1 hour before 3 PBS washes and the addition of […] IBMX (3-isobutyl-1-methylxanthine) in PBS for 5 minutes at 37° C. This was exchanged for 0.5 μM IBMX in PBS plus either DMSO, butaprost (10 μM), AH13205 (10 μM) or PGN9856i (100 nM) for […]. Cells were lysed in Cisbio cAMP lysis buffer with 0.2% TritonX-100 and centrifuged for 15 minutes at 16,000 g. Lysates were normalized to protein concentration determined by Coomassie (Bradford) Protein Assay Kit and analysed as per manufacturers' protocol (Cisbio Gαs dynamic assay) using a PHERAstar FSX.

[3] = biological target: T3, EP2 (Homo sapiens, UniProt P43116); test: Intracellular calcium in myometrial cells with/without oxytocin pre-treatment; details: OT pre-treatment 1 hour, 100 nM; butaprost 10 μM, AH13205 10 μM, PGN9856i 100 nM; FIG. 11
T3 construct: primary human myocytes cultured from term pregnant, non-labouring, myometrium; endogenous in cells; host or cells: primary human myometrial cells (myocytes) cultured from pregnant myometrium
T3 sequence (P43116 whole entry): as above
Experimental: Intracellular calcium response in myometrial cells with/without OT pre-treatment (1 hour, 100 nM) stimulated with butaprost (10 μM), AH13205 (10 μM) or PGN9856i (100 nM). Data are the mean of the maximum fluorescence intensity for each cell measured normalised to background (F-FO). Shown as fold-change over butaprost response. One-way ANOVA with Dunnett's multiple comparison post-hoc test: ##p<0.01. One-sample t-test: *p<0.05.

[4] = biological target: T3, EP2; test: COX-2 protein by western blot in myometrial cells from different labouring groups; details: butaprost 10 μM, 6 hours
Experimental: L=non-labouring, L+E=early stage spontaneous labour, L+L=late stage spontaneous labour, L+SE=early stage induced labour, L+SL=late stage induced labour. (A) COX-2 protein (70 kB) determined by western blot and normalised to GAPDH protein (38 kB) in different labouring groups following 6 hour butaprost (10 μM) stimulation. Data shown as mean±SEM, n=5. Groups compared using one-way ANOVA with Dunnett's multiple comparison post-hoc test: *p<0.05. (B) Representative western blot for FIG. 9A.
Myometrial cells taken from women in different labouring groups were treated for 6-hours with butaprost. Confluent myometrial cells were lysed in RIPA buffer containing 1% Triton x-100, 1% Sodium deoxycholate, 0.1% SDS, 150 mM NaCl, 10 mM Tris, 1 mM EDTA plus 1 mM sodium orthovanadate and one Pierce EDTA-Free protease inhibitor mini tablet. 20-40 μg of lysate as determined via Bradford assay plus Laemmli buffer (0.5M pH 6.8 Tris, 10% SDS, 1% Bromophenol blue, 2% B-ME, 20% Glycerol) were separated with 1×SDS running buffer at 140V on SDS-PAGE gels polymerized with TEMED and ammonium persulfate: separating gel (40% poly, 1M pH 8.8 Tris, 10% SDS), […] (40% poly, 1M Tris (pH 6.8), 10% SDS). Proteins were transferred onto nitrocellulose membranes before blocking in 5% Milk TBS-T for 30 minutes and incubated overnight at 4° C. with primary antibody and blocking buffer (1:1000). Membranes were then incubated in TBS-T with appropriate secondary antibody for 1-3 hours (1:2000) before signal detection using HRP substrate and chemiluminescent imager (ImageQuant LAS 4000).

T1 sequence (P43116 whole entry): as above

SMILES | intracellular Ca2+ release (maximal fluorescence intensity) [1] | cAMP efficacy at the maximal dose of each ligand [2] | EC50 for EP2 agonist-mediated induction of cAMP (relative potency) ([2]; HEK 293 cells stably expressing human FLAG-tagged EP2, dose-response curves, FIG. 1) | calcium response with OT pre-treatment [3] | agonist-induced COX-2 in early stage labouring groups ([4]; all early stage labouring groups) | agonist-induced COX-2 increase in late stage labouring groups ([4]; either late stage labouring group) | agonist-induced increases in COX-2 across groups ([4]; non-labouring and labouring groups, normalised to GAPDH)
CC(C)OC(=O)COc1cccc(NC(=O)c2cc(-c3cccc(F)c3)ccc2F)c1 [PGN9856i, propan-2-yl 2-(3-{3′,4-difluoro-[1,1′-biphenyl]-3-amido}phenoxy)acetate] | unable to elicit intracellular Ca2+ release | equally efficacious | greatest potency, by three orders of magnitude | unable to elicit a response | – | – | –
CCCC1([C@H](O)C/C=C/[C@H]2[C@H](O)CC(=O)[C@@H]2CCCCCCC(=O)OC)CCC1 [butaprost] | enhanced Ca2+ significantly above vehicle | equally efficacious | – | significantly enhance the calcium response | significant increase in all early stage labouring groups | not apparent in either late stage labouring group | maintained across non-labouring and labouring groups
